System: 126254-015-R-J1-PDC complex spheroid growth, % test/control
Assay: Anticancer human tumor 126254-015-R-J1-PDC patient-derived soft tissue sarcoma cell line growth inhibition [Asc]
Settings: for IC50: curve of first compound; for viability, T/C: stronger effect = lower value
How it was run: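 Tumor cells were grown as multicellular spheroids with stromal HUVEC and mesenchymal stem cells and treated singly or in combination. Concentrations fell in half-log steps from the clinical Cmax, or from 10 microM where none was known.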
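Further: spheroids exposed to compound for seven days.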
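Wherever viability, T/C is given: 100% = DMSO vehicle control wells.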

## CNC(C)C(=O)NC1CN(S(=O)(=O)c2cccc(S(=O)(=O)N3CCC4CCC(C(=O)NC(c5ccccc5)c5ccccc5)N4C(=O)C(NC(=O)C(C)NC)C3)c2)CCC2CCC(C(=O)NC(c3ccccc3)c3ccccc3)N2C1=O (stereo not given) + CCN1C(C(=O)NC23CCC(C(=O)O)(CC2)CC3)C(c2cccc(Cl)c2F)C2(C(=O)Nc3cc(Cl)ccc32)C12CCCCC2
Second compound 0.03 µM
  IC50: > 1000 nM
Second compound 0.0949 µM
  IC50: > 1000 nM
Second compound 0.3 µM
  IC50: > 1000 nM
Second compound 0.949 µM
  IC50: > 1000 nM
Second compound 3 µM
  IC50: > 1000 nM
Second compound 0.03 µM, first compound 0.00316 µM
  viability, T/C: 108%
Second compound 0.03 µM, first compound 0.01 µM
  viability, T/C: 94.3%
Second compound 0.03 µM, first compound 0.0316 µM
  viability, T/C: 76.7%
Second compound 0.03 µM, first compound 0.1 µM
  viability, T/C: 61.4%
Second compound 0.03 µM, first compound 0.316 µM
  viability, T/C: 50.6%
Second compound 0.03 µM, first compound 1 µM
  viability, T/C: 56.6%
Second compound 0.0949 µM, first compound 0.00316 µM
  viability, T/C: 104%
Second compound 0.0949 µM, first compound 0.01 µM
  viability, T/C: 106%
Second compound 0.0949 µM, first compound 0.0316 µM
  viability, T/C: 78.5%
Second compound 0.0949 µM, first compound 0.1 µM
  viability, T/C: 67.2%
Second compound 0.0949 µM, first compound 0.316 µM
  viability, T/C: 52.6%
Second compound 0.0949 µM, first compound 1 µM
  viability, T/C: 57.6%
Second compound 0.3 µM, first compound 0.00316 µM
  viability, T/C: 96%
Second compound 0.3 µM, first compound 0.01 µM
  viability, T/C: 92.9%
Second compound 0.3 µM, first compound 0.0316 µM
  viability, T/C: 96.4%
Second compound 0.3 µM, first compound 0.1 µM
  viability, T/C: 65.3%
Second compound 0.3 µM, first compound 0.316 µM
  viability, T/C: 62%
Second compound 0.3 µM, first compound 1 µM
  viability, T/C: 55.8%
Second compound 0.949 µM, first compound 0.00316 µM
  viability, T/C: 103%
Second compound 0.949 µM, first compound 0.01 µM
  viability, T/C: 90.4%
Second compound 0.949 µM, first compound 0.0316 µM
  viability, T/C: 79.6%
Second compound 0.949 µM, first compound 0.1 µM
  viability, T/C: 66%
Second compound 0.949 µM, first compound 0.316 µM
  viability, T/C: 58%
Second compound 0.949 µM, first compound 1 µM
  viability, T/C: 55.7%
Second compound 3 µM, first compound 0.00316 µM
  viability, T/C: 85.7%
Second compound 3 µM, first compound 0.01 µM
  viability, T/C: 80.8%
Second compound 3 µM, first compound 0.0316 µM
  viability, T/C: 84.6%
Second compound 3 µM, first compound 0.1 µM
  viability, T/C: 65.3%
Second compound 3 µM, first compound 0.316 µM
  viability, T/C: 53.9%
Second compound 3 µM, first compound 1 µM
  viability, T/C: 59.2%

## O=C(c1ccc(F)c(F)c1Nc1ccc(I)cc1F)N1CC(O)([C@@H]2CCCCN2)C1 + CNC(C)C(=O)NC1CN(S(=O)(=O)c2cccc(S(=O)(=O)N3CCC4CCC(C(=O)NC(c5ccccc5)c5ccccc5)N4C(=O)C(NC(=O)C(C)NC)C3)c2)CCC2CCC(C(=O)NC(c3ccccc3)c3ccccc3)N2C1=O
Second compound 0.01 µM
  IC50: 594 nM
Second compound 0.0316 µM
  IC50: 377 nM
Second compound 0.1 µM
  IC50: 164 nM
Second compound 0.316 µM
  IC50: 86.6 nM
Second compound 1 µM
  IC50: 85.2 nM
Second compound 0.01 µM, first compound 0.00316 µM
  viability, T/C: 82.4%
Second compound 0.01 µM, first compound 0.01 µM
  viability, T/C: 87.6%
Second compound 0.01 µM, first compound 0.0316 µM
  viability, T/C: 79.8%
Second compound 0.01 µM, first compound 0.1 µM
  viability, T/C: 90.9%
Second compound 0.01 µM, first compound 0.316 µM
  viability, T/C: 66.9%
Second compound 0.01 µM, first compound 1 µM
  viability, T/C: 36%
Second compound 0.0316 µM, first compound 0.00316 µM
  viability, T/C: 84.2%
Second compound 0.0316 µM, first compound 0.01 µM
  viability, T/C: 72.7%
Second compound 0.0316 µM, first compound 0.0316 µM
  viability, T/C: 67.9%
Second compound 0.0316 µM, first compound 0.1 µM
  viability, T/C: 67.2%
Second compound 0.0316 µM, first compound 0.316 µM
  viability, T/C: 55.1%
Second compound 0.0316 µM, first compound 1 µM
  viability, T/C: 33%
Second compound 0.1 µM, first compound 0.00316 µM
  viability, T/C: 59.7%
Second compound 0.1 µM, first compound 0.01 µM
  viability, T/C: 67.3%
Second compound 0.1 µM, first compound 0.0316 µM
  viability, T/C: 67.5%
Second compound 0.1 µM, first compound 0.1 µM
  viability, T/C: 59.6%
Second compound 0.1 µM, first compound 0.316 µM
  viability, T/C: 37%
Second compound 0.1 µM, first compound 1 µM
  viability, T/C: 28.1%
Second compound 0.316 µM, first compound 0.00316 µM
  viability, T/C: 62.5%
Second compound 0.316 µM, first compound 0.01 µM
  viability, T/C: 62.8%
Second compound 0.316 µM, first compound 0.0316 µM
  viability, T/C: 54.6%
Second compound 0.316 µM, first compound 0.1 µM
  viability, T/C: 51.3%
Second compound 0.316 µM, first compound 0.316 µM
  viability, T/C: 30.1%
Second compound 0.316 µM, first compound 1 µM
  viability, T/C: 19.1%
Second compound 1 µM, first compound 0.00316 µM
  viability, T/C: 56.9%
Second compound 1 µM, first compound 0.01 µM
  viability, T/C: 54.1%
Second compound 1 µM, first compound 0.0316 µM
  viability, T/C: 54.3%
Second compound 1 µM, first compound 0.1 µM
  viability, T/C: 49.3%
Second compound 1 µM, first compound 0.316 µM
  viability, T/C: 27%
Second compound 1 µM, first compound 1 µM
  viability, T/C: 21.1%
